# Data reported in patent US20150175681A1 (priority 2010, published 2015).
# Columns and labels:
# Format in all cases: in vivo
# [1] = system: C. difficile (ATCC 43596); details: Example 5C
# [2] = system: C. difficile (ATCC 43596, strain 545)
# [3] = system: C. difficile (ATCC 43596 strain); details: Example 5B
# [4] = Example 5E, vancomycin 20 mg/kg
# [5] = Example 5E, vancomycin 20 mg/kg BID × 5 days
structure (smiles),measurement,setting,value
CN[C@H](CC(C)C)C(=O)N[C@H]1C(=O)N[C@@H](CC(N)=O)C(=O)N[C@H]2C(=O)N[C@H]3C(=O)N[C@H](C(=O)N[C@H](C(=O)O)c4cc(O)cc(O)c4-c4cc3ccc4O)[C@H](O)c3ccc(c(Cl)c3)Oc3cc2cc(c3O[C@@H]2O[C@H](CO)[C@@H](O)[C@H](O)[C@H]2O[C@H]2C[C@](C)(N)[C@H](O)[C@H](C)O2)Oc2ccc(cc2Cl)[C@H]1O [Vancomycin],% mortality,"[1]; 40 days, vancomycin 20 mg/kg PO BID × 5 days, mAbs 50 mg/kg (combination 50, 50) IP Q2d × 4, 7 hamsters",100%
same,"number of hamster deaths, day of study 12",[1]; doses as Table 4,1
same,"number of hamster deaths, day of study 14",[1]; doses as Table 4,2
same,"number of hamster deaths, day of study 15",[1]; doses as Table 4,1
same,"number of hamster deaths, day of study 18",[1]; doses as Table 4,1
same,"number of hamster deaths, day of study 19",[1]; doses as Table 4,2
same,mean body weights over the study,"[2]; Example 5E, to day 39",decreased during the first week post-infection and then rebounded
same,Day 40 Survival,[2]; [4],0%
same,Median Survival,[2]; [4],20 days
same,% mortality,[2]; [5],100%
same,"number of hamster deaths, day of study 11 to 14",[2]; [5],1
same,"number of hamster deaths, day of study 18 to 20",[2]; [5],5
same,"number of hamster deaths, day of study 22",[2]; [5],2
same,"cecal C. difficile, mean CFU",[2]; in vivo,6.01±0.93 log10
same,% mortality,"[3]; 37 days, vancomycin 20 mg/kg PO BID × 5 days, goat polyclonal Abs 1 mL/hamster, PA-38 + PA-41 50, 50 mg/kg, PA-39 + PA-41 50, 40 mg/kg IP Q2d × 4",88%
same,"number of hamster deaths, day of study 15","[3]; doses as Table 2, 8 animals",1
same,"number of hamster deaths, day of study 18","[3]; doses as Table 2, 8 animals",5
same,"number of hamster deaths, day of study 19","[3]; doses as Table 2, 8 animals",1
same,mean body weights,[3]; first week after infection,declined significantly during the first week after infection
same,hamsters found dead between Days 15 and 19,[3]; vancomycin 20 mg/kg BID Days 1-5,seven of eight
